Laboratory results taken from ChEMBL document CHEMBL1159141, “Synthesis and biology of substituted 3-phenyl taxol analogues” (1994).

Tests used:
B16 = assay: In vitro concentration which causes 50% inhibition of proliferation of B16 melanoma cells, activity relative to taxol (ED50=1); assay type: functional, Mus musculus
[1] = target: Tubulin alpha chain (Sus scrofa) (UniProt P02550); assay: In vitro concentration which causes polymerization of 50% of the tubulin, activity relative to taxol (ED50=1); assay type: functional
HCT-116 = assay: In vitro concentration which causes 50% inhibition against HCT116 cell line, activity relative to taxol (ED50=1); assay type: functional, Homo sapiens

Chain of Tubulin alpha chain (Sus scrofa) (P02550 whole entry, looked up): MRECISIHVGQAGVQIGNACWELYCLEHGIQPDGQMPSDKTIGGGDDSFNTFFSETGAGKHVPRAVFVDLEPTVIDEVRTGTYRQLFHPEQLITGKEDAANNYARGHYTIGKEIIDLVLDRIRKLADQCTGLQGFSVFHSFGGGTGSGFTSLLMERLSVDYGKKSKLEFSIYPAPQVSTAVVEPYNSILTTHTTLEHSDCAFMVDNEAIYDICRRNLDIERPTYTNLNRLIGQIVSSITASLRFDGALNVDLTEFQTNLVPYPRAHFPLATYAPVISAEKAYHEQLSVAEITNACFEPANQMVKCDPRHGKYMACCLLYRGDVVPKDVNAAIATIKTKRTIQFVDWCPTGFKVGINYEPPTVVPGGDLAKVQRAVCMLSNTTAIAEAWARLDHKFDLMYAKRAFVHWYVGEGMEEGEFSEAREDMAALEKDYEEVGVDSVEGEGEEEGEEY

Compound	ED50 ratio [1]	ED50 ratio (B16)	ED50 ratio (HCT-116)
CC(=O)O[C@H]1C(=O)[C@@]2(C)[C@H]([C@H](OC(=O)c3ccccc3)[C@]3(O)C[C@H](OC(=O)[C@H](O)[C@H](NC(=O)c4ccccc4)c4ccccc4C)C(C)=C1C3(C)C)[C@]1(OC(C)=O)CO[C@@H]1C[C@@H]2O	5.1	>33	
CC(=O)O[C@H]1C(=O)[C@@]2(C)[C@H]([C@H](OC(=O)c3ccccc3)[C@]3(O)C[C@H](OC(=O)[C@H](O)[C@H](NC(=O)c4ccccc4)c4ccc([N+](=O)[O-])cc4)C(C)=C1C3(C)C)[C@]1(OC(C)=O)CO[C@@H]1C[C@@H]2O	1.1		35
CC(=O)O[C@H]1C(=O)[C@@]2(C)[C@H]([C@H](OC(=O)c3ccccc3)[C@]3(O)C[C@H](OC(=O)[C@H](O)[C@H](NC(=O)c4ccccc4)c4ccc(F)cc4)C(C)=C1C3(C)C)[C@]1(OC(C)=O)CO[C@@H]1C[C@@H]2O	1.1	1.2	
COc1ccc([C@@H](NC(=O)c2ccccc2)[C@@H](O)C(=O)O[C@H]2C[C@@]3(O)[C@@H](OC(=O)c4ccccc4)[C@@H]4[C@]5(OC(C)=O)CO[C@@H]5C[C@H](O)[C@@]4(C)C(=O)[C@H](OC(C)=O)C(=C2C)C3(C)C)cc1	0.5	1	
CC(=O)O[C@H]1C(=O)[C@@]2(C)[C@H]([C@H](OC(=O)c3ccccc3)[C@]3(O)C[C@H](OC(=O)[C@H](O)[C@H](NC(=O)c4ccccc4)c4ccc(Cl)cc4)C(C)=C1C3(C)C)[C@]1(OC(C)=O)CO[C@@H]1C[C@@H]2O	1.9	2.2	

More lines, main results first:

ED50 ratio [1]	Compound	ED50 ratio (B16)	ED50 ratio (HCT-116)
7.1	CC(=O)O[C@H]1C(=O)[C@@]2(C)[C@H]([C@H](OC(=O)c3ccccc3)[C@]3(O)C[C@H](OC(=O)[C@H](O)[C@H](NC(=O)c4ccccc4)c4ccc(Cl)c(Cl)c4)C(C)=C1C3(C)C)[C@]1(OC(C)=O)CO[C@@H]1C[C@@H]2O	40	
4.6	CC(=O)O[C@H]1C(=O)[C@@]2(C)[C@H]([C@H](OC(=O)c3ccccc3)[C@]3(O)C[C@H](OC(=O)[C@H](O)[C@H](NC(=O)c4ccccc4)c4cccc(N(C)C)c4)C(C)=C1C3(C)C)[C@]1(OC(C)=O)CO[C@@H]1C[C@@H]2O	5.8	
1	CC(=O)O[C@H]1C(=O)[C@@]2(C)[C@H]([C@H](OC(=O)c3ccccc3)[C@]3(O)C[C@H](OC(=O)[C@H](O)[C@@H](NC(=O)c4ccccc4)c4ccccc4)C(C)=C1C3(C)C)[C@]1(OC(C)=O)CO[C@@H]1C[C@@H]2O [PACLITAXEL]	1	
4.4	CC(=O)O[C@H]1C(=O)[C@@]2(C)[C@H]([C@H](OC(=O)c3ccccc3)[C@]3(O)C[C@H](OC(=O)[C@H](O)[C@H](NC(=O)c4ccccc4)c4cccc(Cl)c4)C(C)=C1C3(C)C)[C@]1(OC(C)=O)CO[C@@H]1C[C@@H]2O	6.7	
2.4	CC(=O)O[C@H]1C(=O)[C@@]2(C)[C@H]([C@H](OC(=O)c3ccccc3)[C@]3(O)C[C@H](OC(=O)[C@H](O)[C@H](NC(=O)c4ccccc4)c4ccc(C)cc4)C(C)=C1C3(C)C)[C@]1(OC(C)=O)CO[C@@H]1C[C@@H]2O	3	
